Test results: patent US20230123334A1, “AMINO LIPID COMPOUND, PREPARATION METHOD THEREFOR, AND APPLICATION THEREOF” (SHENZHEN SHENXIN BIOTECHNOLOGY CO., LTD., priority 2020, published 2023)

Legend:
HEK293 cells [1] = assay: Preliminary screening as mRNA vectors, EGFP mRNA transfection of HEK293 cells; type: cell-based; settings: HEK293 cells, 96-well plates, EGFP mRNA 50 ng per well; percentage of GFP fluorescent cells relative to total number of cells (Hoechst)
In short: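 HEK293 cells in DMEM plus 10% FBS transfected in 96-well format with 50 ng EGFP mRNA per well; Lipofectamine2000 served as positive control. Read-out is the percentage of GFP-fluorescent cells among total cells, counted by Hoechst nuclear stain.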

HEK293 cells [2] = assay: Preliminary screening as DNA vectors, GFP transfection of HEK293 cells; type: cell-based; settings: HEK293 cells; lipid/DOPE liposome with 75 ng plasmid DNA (psin-EGFP-IRES-Puro); number of cells expressing GFP divided by total number of nuclei (Hoechst)
In short: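 HEK293 cells in DMEM/10% FBS transfected with 75 ng EGFP plasmid per well complexed with amino lipid/DOPE liposomes in pH 5.6 sodium acetate. Hoechst nuclear stain added 20-24 h post-transfection, then cells cultured another 20-24 h. Confocal imaging gives GFP-positive cells as % of total nuclei.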

SMILES | Absolute mRNA transfection efficiency in HEK293 cells (HEK293 cells [1]) [%] | Absolute DNA transfection efficiency in HEK293 cells (HEK293 cells [2]) [%]
CCCCCCCCCCSc1nc(NCC2CCN(C)CC2)nc(SCCCCCCCCCC)n1 [Compound S10S10D10] | 87.1 | 18.8
CCCCCCCCCCCCCCSc1nc(NCC2CCN(C)CC2)nc(SCCCCCCCCCC)n1 [Compound S10S14D10] | 37.7 | 23.0
CCCCCCCCCCCCN(CCCCCCCCCCCC)c1nc(NCCCCCCCCC)nc(NCCCN(C)C)n1 [N9^2N12D6] | 0.8 | 0.3
CCCCCCCCCCCCCCCCNc1nc(NCCCN2CCN(C)CC2)nc(N(CCCCCCCCCCCC)CCCCCCCCCCCC)n1 [N16^2N12D9] | 0.0 | 0.5
CCCCCCCCNc1nc(NCCCCCC)nc(NCCCN(C)C)n1 [Compound N6N8D6] | 0.0 | 0.1
CCCCCCCCCCCCNc1nc(NCCCCCCC)nc(NCC2CCN(C)CC2)n1 [Compound N7N12D10] | 0.8 | 1.4
CCCCCCCCCCCCCCCCCCNc1nc(NCCCCCCCCCCCCCCCCCC)nc(NCC2CCN(C)CC2)n1 [Compound N18N18D10] | 0.0 | 0.0
CCCCCCCCCCCCCCCCSc1nc(NCCN2CCN(C)CC2)nc(SCCCCCCCCCCCCCCCC)n1 [Compound S16S16D5] | 0.7 | 0.0
CCCCCCCCCCCCNc1nc(NCCCN(C)C)nc(N(CCCCCCCCCCCC)CCCCCCCCCCCC)n1 [N12^2N12D6] | 1.2 | 3.6
CCCCCCCCCCCCCCCCNc1nc(NCCCCCCC)nc(NCCCN(C)C)n1 [Compound N7N16D6] | 5.0 | 0.6
CCCCCCCCCNc1nc(NCCCCCC)nc(NCCCN(C)C)n1 [Compound N6N9D6] | 0.2 | 0.0
CCCCCCCCCCCCCCCCCCSc1nc(NCCN2CCOCC2)nc(SCCCCCCCCCCCCCCC)n1 [Compound S15S18D2] | 0.5 | 0.1
CCCCCCCCCNc1nc(NCCCCCCCCC)nc(NCCCN2CCN(C)CC2)n1 [Compound N9N9D9] | 0.2 | 0.0
CCCCCCCCCCCCCNc1nc(NCCCCCCCCCCCCC)nc(NCCN2CCCCC2)n1 [Compound N13N13D4] | 3.3 | 1.5
CCCCCCCCCCCCCCCCCCNc1nc(NCCCCCCCCCCC)nc(NCCN2CCCCC2)n1 [Compound N11N18D4] | 2.3 | 1.9
CCCCCCCCCCCNc1nc(NCCCCCCCC)nc(NCCN2CCCC2)n1 [Compound N8N11D3] | 4.2 | 3.6
CCCCCCCCCCCCCCCCCCNc1nc(NCCCCCCC)nc(NCCN2CCCC2)n1 [Compound N7N18D3] | 0.1 | 5.0
CCCCCCCCCCCCCCCCCCNc1nc(NCCCCCCCCCCCCC)nc(NCCN2CCN(C)CC2)n1 [Compound N13N18D5] | 0.7 | 0.2
CCCCCCCCCCCCCCCSc1nc(NCCN2CCOCC2)nc(SCCCCCCCCCCC)n1 [Compound S11S15D2] | 0.0 | 0.3
CCCCCCCCCCCCCNc1nc(NCCCCCCCCC)nc(NCC2CCN(C)CC2)n1 [Compound N9N13D10] | 2.8 | 0.3
CCCCCCCCCCCCCCCNc1nc(NCCCCCCCCCCCC)nc(NCCCN(C)C)n1 [Compound N12N15D6] | 2.3 | 0.9
CCCCCCCCCCCCCCCCSc1nc(NCCN(CC)CC)nc(SCCCCCCCCCC)n1 [Compound S10S16D7] | 0.7 | 3.1
CCCCCCCCCCCCCCSc1nc(NCCCN2CCN(C)CC2)nc(SCCCCCCCCCCC)n1 [Compound S11S14D9] | 9.9 | 4.1
CCCCCCCCCCCCCCCCNc1nc(NCCCCCCCCCCCCCCCC)nc(NCC2CCN(C)CC2)n1 [Compound N16N16D10] | 0.0 | 0.0

SMILES | Absolute mRNA transfection efficiency in HEK293 cells (HEK293 cells [1]) [%] | Absolute DNA transfection efficiency in HEK293 cells (HEK293 cells [2]) [%]
CCCCCCCCCCCCCCCCCCSc1nc(NCCN2CCCC2)nc(SCCCCCCCCCCC)n1 [Compound S11S18D3] | 11.6 | 4.8
CCCCCCCNc1nc(NCCCCCCC)nc(NCCCN2CCOCC2)n1 [Compound N7N7D8] | 0.0 | 0.0
CCCCCCCCCCCCCNc1nc(NCCCCCC)nc(NCCCN(C)C)n1 [Compound N6N13D6] | 0.1 | 0.1
CCCCCCCCCCCCCCCCCCSc1nc(NCCN2CCCCC2)nc(SCCCCCCCCCCCCCCCCCC)n1 [Compound S18S18D4] | 0.1 | 0.1
CCCCCCCCCCCCCCSc1nc(NCCN(CC)CC)nc(SCCCCCCCC)n1 [Compound S8S14D7] | 1.3 | 7.5
CCCCCCCCCCCCCCCCSc1nc(NCCN2CCOCC2)nc(SCCCCCCCCCCCCCC)n1 [Compound S14S16D2] | 0.0 | 0.0
CCCCCCCCCSc1nc(NCCN2CCCC2)nc(SCCCCCCCCC)n1 [Compound S9S9D3] | 4.5 | 11.9
CCCCCCCCCCSc1nc(NCCCN(C)C)nc(SCCCCCCCCCC)n1 [Compound S10S10D6] | 59.1 | 23.6
CCCCCCCCCCCCCCCCSc1nc(NCCN2CCCC2)nc(SCCCCCCCCCC)n1 [Compound S10S16D3] | 1.7 | 9.5
CCCCCCCNc1nc(NCCCCCC)nc(NCC2CCN(C)CC2)n1 [Compound N6N7D10] | 0.0 | 0.0
CCCCCCCCCCCCNc1nc(NCCCCCCC)nc(NCCCN2CCOCC2)n1 [Compound N7N12D8] | 0.0 | 0.1
CCCCCCCCCCCCCCCNc1nc(NCCN2CCCCC2)nc(N(CCCCCCCCCCCC)CCCCCCCCCCCC)n1 [N15^2N12D4] | 2.9 | 2.1
CCCCCCCCCCCNc1nc(NCCCCCCCCCCC)nc(NCCCN2CCOCC2)n1 [Compound N11N11D8] | 1.5 | 0.0
CCCCCCCCCCCCNc1nc(NCCCCCCCCCCCC)nc(NCCCN2CCOCC2)n1 [Compound N12N12D8] | 0.3 | 0.0
CCCCCCCCCNc1nc(NCCCCCCCCC)nc(NCCN2CCN(C)CC2)n1 [Compound N9N9D5] | 0.1 | 0.0
CCCCCCCCCCCCN(CCCCCCCCCCCC)c1nc(NCCCCCCC)nc(NCCCN(C)C)n1 [N7^2N12D6] | 4.8 | 0.7
CCCCCCCCCCCCCCCNc1nc(NCCCCCCC)nc(NCCCN2CCOCC2)n1 [Compound N7N15D8] | 0.2 | 0.2
CCCCCCCCCCCCCCCCCCSc1nc(NCCN(CC)CC)nc(SCCCCCCCCCCCCCCCC)n1 [Compound S16S18D7] | 1.8 | 1.0
CCCCCCCCCCCCCCCCCCSc1nc(NCCN2CCCCC2)nc(SCCCCCCCCCCCC)n1 [Compound S12S18D4] | 5.1 | 2.6
CCCCCCCCCCCCCCCCNc1nc(NCCCCCC)nc(NCCN2CCCCC2)n1 [Compound N6N16D4] | 0.0 | 0.0
CCCCCCCCCCCNc1nc(NCCCCCC)nc(NCCN2CCOCC2)n1 [Compound N6N11D2] | 0.0 | 0.0
CCCCCCCCCCCCCCCCCCNc1nc(NCCCCCCCCCCCCCCC)nc(NCCCN(C)C)n1 [Compound N15N18D6] | 8.6 | 0.6
CCCCCCCCCCCCCCCCSc1nc(NCCN2CCCC2)nc(SCCCCCCCCCCCCCCCC)n1 [Compound S16S16D3] | 0.8 | 0.9
CCCCCCCCCCCCCCCCSc1nc(NCCN(C)C)nc(SCCCCCCCCCCCC)n1 [Compound S12S16D1] | 0.0 | 0.6
